{
  "source": "patent US20250092015A1",
  "about": "“A 6-substituted Chiral Pure Difluoropiperidine Quinazoline Derivative And Its Preparation Method” (WEISHANG (SHANGHAI) BIO-PHARMACEUTICAL CO., LTD., priority 2022, published 2025)",
  "key": {"[1]": {"target": "T1, Breast cancer resistance protein (Homo sapiens, UniProt Q9UNQ0)", "T1 sequence (Q9UNQ0 1-655)": "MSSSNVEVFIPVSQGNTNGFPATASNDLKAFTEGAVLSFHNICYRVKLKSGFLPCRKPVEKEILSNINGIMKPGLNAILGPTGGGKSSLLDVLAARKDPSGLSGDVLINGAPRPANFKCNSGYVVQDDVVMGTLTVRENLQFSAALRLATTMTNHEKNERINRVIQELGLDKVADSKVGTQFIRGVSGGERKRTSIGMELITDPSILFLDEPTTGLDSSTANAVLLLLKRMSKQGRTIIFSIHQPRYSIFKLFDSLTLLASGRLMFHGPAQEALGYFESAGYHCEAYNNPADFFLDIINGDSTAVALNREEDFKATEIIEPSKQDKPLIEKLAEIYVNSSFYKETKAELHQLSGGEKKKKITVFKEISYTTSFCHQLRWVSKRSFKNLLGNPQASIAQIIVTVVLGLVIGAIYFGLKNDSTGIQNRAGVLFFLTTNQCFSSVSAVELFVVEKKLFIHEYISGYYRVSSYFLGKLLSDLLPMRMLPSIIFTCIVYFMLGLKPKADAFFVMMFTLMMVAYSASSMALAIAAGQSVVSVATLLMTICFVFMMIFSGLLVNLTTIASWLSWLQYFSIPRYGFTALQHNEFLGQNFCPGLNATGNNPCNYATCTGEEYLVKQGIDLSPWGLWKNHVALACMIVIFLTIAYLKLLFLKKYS", "experiment": "Breast cancer resistance protein efflux substrate test", "assay_type": "in vitro ADME"}, "[2]": {"system": "patient's primary tumor tissue GBM (EGFRV3 mutated brain tumor)", "experiment": "Survival in mouse intracranial PDX model", "assay_type": "in vivo, mice", "settings": "30 mg/kg, PO, BID, treatment more than 50 d, FIG. 2", "protocol": "The patient's primary tumor tissue GBM (brain tumor, about 50,000 cells) was seeded into the brain of mice. Administration began after the tumor grew for about 10 d and treatment lasted for more than 50 d. In the pharmacodynamic study of tumor transplanted animal model with EGFRV3 mutated brain tumor from patient's primary tumor tissue in mice, Group 1 was the control group (8 mice) without any medication. Group 2 received (R)-6-((3,3-difluoro-1-methylpiperidin-4-yl)oxy)-N-(3-ethynyl-2-fluorophenyl)-7-methoxyquinazoline-4-amine monotherapy group (8 mice), 30 mg/kg, PO, BID."}, "[3]": {"system": "H3255 tumor cell (EGFR L858R mutation)", "experiment": "CellTiter-Glo (CTG) cell viability, H3255 cells", "assay_type": "cell-based", "settings": "Homo sapiens, NCI-H3255, 72 h of drug addition, read-out: Growth inhibition IC50, H3255 tumor cell (EGFR L858R mutation)", "protocol": "(§1) Cell viability of tumor cells and gliomas with EGFR-activated mutant (Exon 19 Del, PC-9 cell; Exon 21 L858R, H3255 cell) protein was detected using CellTiter-Glo (CTG) assay; approximately 5000 cells were placed in each blank of the 96-well plate. The diluted compound was added proportionally after 16 h and equilibrated at room temperature for 30 min after 72 h of drug addition. 100 µL of CellTiter-Glo reagent was added to each well and mixed well on an orbital shaker for 2 min to induce cell lysis. The plate was incubated at room temperature for 10 min to stabilize the luminous signal. The luminous signal was recorded on a TECAN Infinite M1000 Pro instrument."}, "EGFR enzyme": {"target": "EGFR enzyme (Homo sapiens, UniProt P00533)", "sequence (P00533 25-1210)": "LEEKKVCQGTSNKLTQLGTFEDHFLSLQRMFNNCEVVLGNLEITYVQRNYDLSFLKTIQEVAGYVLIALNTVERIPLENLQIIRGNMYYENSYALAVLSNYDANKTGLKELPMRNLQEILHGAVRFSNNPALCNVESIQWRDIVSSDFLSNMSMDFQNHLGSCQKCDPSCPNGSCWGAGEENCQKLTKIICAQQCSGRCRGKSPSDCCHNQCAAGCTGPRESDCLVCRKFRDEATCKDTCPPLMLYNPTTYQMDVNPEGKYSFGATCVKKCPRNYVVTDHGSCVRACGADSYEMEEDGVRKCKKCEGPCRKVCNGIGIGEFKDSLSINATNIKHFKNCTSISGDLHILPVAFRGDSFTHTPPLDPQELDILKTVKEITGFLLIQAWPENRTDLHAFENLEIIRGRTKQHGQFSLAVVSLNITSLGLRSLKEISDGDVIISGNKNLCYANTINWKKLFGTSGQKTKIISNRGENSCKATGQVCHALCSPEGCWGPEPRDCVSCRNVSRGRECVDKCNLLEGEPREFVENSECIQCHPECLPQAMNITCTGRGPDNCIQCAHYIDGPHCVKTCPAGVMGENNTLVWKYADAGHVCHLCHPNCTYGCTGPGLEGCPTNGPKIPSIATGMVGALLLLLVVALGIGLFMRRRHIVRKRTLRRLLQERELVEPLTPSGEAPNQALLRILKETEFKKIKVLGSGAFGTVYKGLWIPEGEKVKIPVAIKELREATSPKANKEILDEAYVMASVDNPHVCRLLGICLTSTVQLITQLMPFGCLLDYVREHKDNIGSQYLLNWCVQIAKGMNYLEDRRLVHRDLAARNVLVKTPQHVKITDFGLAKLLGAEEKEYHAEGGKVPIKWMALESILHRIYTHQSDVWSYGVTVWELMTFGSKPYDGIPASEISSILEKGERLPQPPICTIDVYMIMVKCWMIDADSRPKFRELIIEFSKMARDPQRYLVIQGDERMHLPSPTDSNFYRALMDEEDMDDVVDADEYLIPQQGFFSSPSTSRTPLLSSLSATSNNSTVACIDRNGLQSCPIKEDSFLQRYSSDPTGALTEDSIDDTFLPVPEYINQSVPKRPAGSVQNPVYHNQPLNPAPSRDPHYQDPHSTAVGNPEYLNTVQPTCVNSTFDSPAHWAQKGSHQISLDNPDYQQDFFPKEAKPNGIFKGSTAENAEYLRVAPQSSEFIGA", "experiment": "EGFR enzyme ADP-Glo mechanism of action study (ATP titration)", "assay_type": "biochemical", "settings": "PolyE4Y1 substrate, ATP diluted from 600 uM, FIG. 4", "protocol": "In the study of the mechanism of action of (R)-6-((3,3-difluoro-1-methylpiperidin-4-yl)oxy)-N-(3-ethynyl-2-fluorophenyl)-7-methoxyquinazoline-4-amine prepared by the present disclosure to inhibit EGFR, EGFR enzyme was added to a solution of PolyE4Y1 on a 384-well plate from 6 concentrations diluted at an equal ratio of 0.4 nM (2-fold) to 0.0125 nM and 0 concentration, and incubated for 15 min. ATP was added at 7 concentrations diluted at an equal ratio of 600 uM (2-fold) for reaction for 60 min, and then ADP-Glo reagent and detection reagent were added for 40 min to measure RLU signal. […] The benefits of this mechanism of action are obvious, with minimal side effects and anti-drug resistance."}, "[4]": {"system": "PC-9luc tumor cells (non-small cell lung cancer with Exon 19 Del)", "experiment": "Survival in mouse model of intracranial meningeal metastasis", "assay_type": "in vivo", "settings": "PO, BID, PC-9luc seeded into brain of mice, FIG. 3", "protocol": "PC-9luc tumor cells (non-small cell lung cancer with Exon 19 Del, about 2×10^5 cells) were seeded into the brain of mice, and administration was started approximately 11 days after tumor growth. Group 1 was the control group (8 mice), without any medication. Group 2 received Iressa (8 mice), 15 mg/kg, PO. Group 3 received (R)-6-((3,3-difluoro-1-methylpiperidin-4-yl)oxy)-N-(3-ethynyl-2-fluorophenyl)-7-methoxyquinazoline-4-amine monotherapy group (8 mice), 10 mg/kg, PO, BID. Group 4 received (R)-6-((3,3-difluoro-1-methylpiperidin-4-yl)oxy)-N-(3-ethynyl-2-fluorophenyl)-7-methoxyquinazoline-4-amine monotherapy group (8 mice), 3 mg/kg, PO, BID."}, "P-glycoprotein": {"target": "P-glycoprotein (Homo sapiens, UniProt P08183)", "sequence (P08183 whole entry)": "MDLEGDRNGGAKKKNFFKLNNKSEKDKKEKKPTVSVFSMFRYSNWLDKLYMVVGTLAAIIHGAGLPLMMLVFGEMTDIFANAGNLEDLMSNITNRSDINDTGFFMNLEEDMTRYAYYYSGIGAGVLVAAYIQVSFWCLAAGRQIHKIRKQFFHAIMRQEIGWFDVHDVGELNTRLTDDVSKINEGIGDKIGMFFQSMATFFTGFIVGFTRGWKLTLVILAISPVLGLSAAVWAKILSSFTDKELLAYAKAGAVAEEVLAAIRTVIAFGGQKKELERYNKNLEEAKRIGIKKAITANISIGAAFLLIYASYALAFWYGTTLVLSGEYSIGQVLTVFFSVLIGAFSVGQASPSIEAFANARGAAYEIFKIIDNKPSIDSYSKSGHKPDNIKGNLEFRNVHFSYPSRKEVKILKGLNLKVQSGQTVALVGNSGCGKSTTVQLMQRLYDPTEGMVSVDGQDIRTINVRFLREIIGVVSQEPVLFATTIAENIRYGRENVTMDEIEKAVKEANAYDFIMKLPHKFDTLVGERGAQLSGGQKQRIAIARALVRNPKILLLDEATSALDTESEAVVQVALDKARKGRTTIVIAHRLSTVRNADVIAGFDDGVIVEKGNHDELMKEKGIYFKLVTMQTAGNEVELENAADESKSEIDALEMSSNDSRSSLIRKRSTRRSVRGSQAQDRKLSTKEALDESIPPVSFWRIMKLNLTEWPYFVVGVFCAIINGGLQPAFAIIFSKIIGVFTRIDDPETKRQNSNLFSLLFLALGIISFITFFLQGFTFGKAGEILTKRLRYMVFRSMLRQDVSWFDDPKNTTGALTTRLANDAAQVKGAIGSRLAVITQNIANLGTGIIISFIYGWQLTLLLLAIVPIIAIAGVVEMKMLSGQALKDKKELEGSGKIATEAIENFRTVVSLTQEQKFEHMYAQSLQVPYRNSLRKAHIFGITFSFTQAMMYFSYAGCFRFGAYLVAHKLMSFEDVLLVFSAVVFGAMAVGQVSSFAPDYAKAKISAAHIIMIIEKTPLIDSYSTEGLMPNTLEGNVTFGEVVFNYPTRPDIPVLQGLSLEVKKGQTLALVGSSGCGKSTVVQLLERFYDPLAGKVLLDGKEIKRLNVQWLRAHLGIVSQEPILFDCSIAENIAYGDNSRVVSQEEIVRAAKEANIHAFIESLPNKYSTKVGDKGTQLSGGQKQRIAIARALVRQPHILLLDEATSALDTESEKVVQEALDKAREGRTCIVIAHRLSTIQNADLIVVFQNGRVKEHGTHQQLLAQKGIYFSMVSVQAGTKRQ", "experiment": "P-glycoprotein efflux substrate test", "assay_type": "in vitro ADME"}, "[5]": {"system": "PC-9 tumor cell (EGFR Del 19 mutation)", "experiment": "CellTiter-Glo (CTG) cell viability, PC-9 cells", "assay_type": "cell-based", "settings": "Homo sapiens, 72 h of drug addition, read-out: Growth inhibition IC50, PC-9 tumor cell (EGFR Del 19 mutation)", "protocol": "as §1"}, "[6]": {"experiment": "Rate of crossing blood-brain barrier in rats", "assay_type": "in vivo", "settings": "4 h after administration", "protocol": "To determine whether (R)-6-((3,3-difluoro-1-methylpiperidin-4-yl)oxy)-N-(3-ethynyl-2-fluorophenyl)-7-methoxyquinazoline-4-amine prepared by the present disclosure is able to cross the blood-brain barrier (BBB), the test compound was administered to rats. After 4 h of administration, the rats were killed and blood and brain tissues were collected to test the compound concentration. Brain osmosis is defined as the ratio of the concentration of compounds in brain tissue to the concentration in plasma. The rate of crossing blood-brain barrier is the ratio of free drug concentration in brain tissue to free drug concentration in plasma. P-glycoprotein is an efflux protein at the blood-brain barrier that excretes P-glycoprotein substrate from the brain. Breast cancer resistance protein is an efflux protein at the blood-brain barrier that excretes […]."}, "[7]": {"experiment": "Pharmacokinetic study of rats (bioavailability)", "assay_type": "in vivo", "settings": "rat, blood, 1-2 mg/kg iv vs 2-40 mg/kg PO", "protocol": "In the pharmacokinetic study of rats, Group 1 (3 rats) was administrated with 1-2 mg/kg, iv, and Group 2 (3 rats) was administrated with 2-40 mg/kg, PO. Blood was sampled at 7 time points (0.25, 0.5, 1, 2, 4, 8 and 16 hours points) to measure the concentration of the quinazoline derivatives (I) prepared by the present disclosure in blood and calculate the peak area and half-life. Bioavailability is calculated as (peak area of oral drug/oral dose)/(peak area of intravenous drug/intravenous dose)×100%."}, "[8]": {"system": "Human glioma tumor cell with EGFRVIII mutation", "experiment": "CellTiter-Glo (CTG) cell viability, glioma cells", "assay_type": "cell-based", "settings": "72 h of drug addition, read-out: Growth inhibition IC50, human glioma tumor cell with EGFRVIII mutation", "protocol": "as §1"}, "[9]": {"settings": "listed as -1-3,3-difluoro-1-methylpiperidin-4-yl)oxy)-N-(3-ethynyl-2-fluorophenyl)-7-metho"}},
  "note": "Where two headings read alike, the source gives them in different places.",
  "data": [
    {"smiles": "C#Cc1cccc(Nc2ncnc3cc(OC)c(O[C@@H]4CCN(C)CC4(F)F)cc23)c1F", "note": "[(R)-6-((3,3-difluoro-1-methylpiperidin-4-yl)oxy)-N-(3-ethynyl-2-fluorophenyl)-7-methoxyquinazoline-4-amine]", "values": [
      {"measurement": "Breast cancer resistance protein efflux substrate", "setting": "[1]", "value": "No"},
      {"measurement": "Breast cancer resistance protein efflux substrate", "setting": "[1]; [9]", "value": "not P-glycoprotein substrate or breast cancer resistance protein efflux substrate"},
      {"measurement": "Survival compared to control group", "setting": "[2]", "value": "significantly prolonged"},
      {"measurement": "IC50", "setting": "[3]", "value": 2, "unit": "nM"},
      {"measurement": "Mechanism of action of EGFR inhibition", "setting": "EGFR enzyme", "value": "non-ATP competitive"},
      {"measurement": "Survival", "setting": "[4]; Group 3, 10 mg/kg", "value": "significantly improved"},
      {"measurement": "Survival", "setting": "[4]; Group 4, 3 mg/kg", "value": "significantly improved"},
      {"measurement": "P-glycoprotein efflux substrate", "setting": "P-glycoprotein", "value": "No"},
      {"measurement": "P-glycoprotein efflux substrate", "setting": "P-glycoprotein; [9]", "value": "not P-glycoprotein substrate"},
      {"measurement": "IC50", "setting": "[5]", "value": 8, "unit": "nM"},
      {"measurement": "Rate of crossing blood-brain barrier (ratio of free drug concentration in brain tissue to free drug concentration in plasma)", "setting": "[6]", "value": ">50", "unit": "%"},
      {"measurement": "Kp at 4 h", "setting": "[6]; rat, brain tissue and plasma (free drug concentrations), read-out: Rate of crossing blood-brain barrier (ratio of free drug concentration in brain tissue to free drug concentration in plasma)", "value": "> 0.5"},
      {"measurement": "bioavailability", "setting": "[7]", "value": "> 35", "unit": "%"},
      {"measurement": "IC50", "setting": "[8]", "value": 10, "unit": "nM"}
    ]}
  ]
}
